From PMC8907375, “Arylated analogues of cypronazole: fungicidal effect and activity on human fibroblasts. Docking analysis and molecular dynamics simulations” (Natural Products and Bioprospecting, 2022)
Converted amounts (≈) assume the structure as drawn. Read-outs that look alike come from different tables or passages of the source.

Columns and labels:
[1] = test system: Aspergillus fumigatus (ATTC 26934); assay: In vitro antifungal activity, broth microdilution (MIC100); format: cell-based; details: A. fumigatus, 30 °C, 48 h, total growth inhibition; for Minimum inhibitory concentration (MIC100): Aspergillus fumigatus, read-out: Fungicidal activity MIC100, AF
Method: (§1) Fungal growth was assessed at six concentrations (3.1–100 μg/mL), using enriched Czapek broth in the presence of triazole 1-8 (Fig. 2). Each treatment was carried out in triplicate. The Minimum Inhibitory Concentration (MIC100) was determined and was defined as the minimum concentration required to inhibit the complete fungal growth inhibition under the conditions of the assay. Triadimefon (TDM) and cyproconazole (CPZ) were used as positive control. In order to evaluate the efficacy of the new compounds to control fungi affecting vineyards, imperfect fungi isolated from infected grapes from the province of San Juan in Argentina were employed. Significant differences were determined by t-Student hypothesis test p, at 95% confidence. In general, moderate to good activity was observed compared to the reference compounds as well as some selectivity against microorganisms.
(§2) The imperfect fungi used for the assays included Botrytis cinerea isolated from grapevine samples, Aspergillus fumigatus (ATTC 26934), A. niger (ATCC 9029), A. ustus (PN-S4), A. japonicus (M15C), A. terreus (M16C) and Fusarium oxysporum (M15-Pa) isolated from soil samples from the province of San Juan, Argentina. The microorganisms were grown on Czapek-yeast extract agar (CYA) prepared with yeast extract, K2HPO4, saccharose, agar, distilled water and enriched with a solution of mineral salts (NaNO3, KCl, MgSO4.7H2O and FeSO4.7 H2O). Inocula were adjusted to 1–5 × 10^4 colony forming units (CFU/ mL).
(§3) The minimum inhibitory concentration (MIC) of each compound was evaluated using broth microdilution techniques in 96-well microtiter plates according to the guidelines of the National Committee for Clinical Laboratory Standards for filamentous fungi M 38 A. The starting inoculum was 1–5 × 10^4 CFU/mL in accordance with the Clinical and Laboratory Standards Institute (CLSI, formerly the National Committee for Clinical Laboratory Standards [NCCLS]) (M27-A3 document for yeasts, and M38-A2 document for filamentous fungi).
(§4) Microtiter plates were incubated at 30 °C for Aspergillus and Fusarium, and 22 °C for B. cinerea in a moist and dark chamber. MIC values were recorded after 48 h for Aspergillus and Fusarium spp., and after 72 h for B. cinerea, according to the fungal growth control. TDM and CPZ were used as positive controls (12.5–50 μg/mL). Stock solutions were two-fold diluted with RPMI from 1000 to 0.98 μg/mL (final volume equal to 100 μL), and a final DMSO concentration ≤ 1%. An inoculum suspension (100 μL) was added to each well with the exception of the sterility control. Endpoints were defined as the lowest compound concentration resulting in total growth inhibition (MIC100) compared to the growth in control wells. MICs values ≤ 50 μg/mL were considered of interest. The assay was carried out in triplicate.

[2] = test system: Fusarium oxysporum (M15-Pa); assay: as above; format: cell-based; details: 30 °C, 48 h, total growth inhibition; for MIC100 (minimum concentration for complete growth inhibition): Fusarium oxysporum, F. oxysporum, read-out: Fungicidal activity MIC100, F
Method: as §1, §2, §3, §4

[3] = test system: B. cinerea (isolated from grapes); assay: as above; format: cell-based, Botrytis cinerea; details: for MIC100 (complete growth inhibition) / Fungicidal activity MIC100, BC: 22 °C, total growth inhibition
Method: as §1, §2, §3, §4

A. ustus (PN-S4) = assay: as above; format: cell-based, Aspergillus ustus; details: 30 °C, 48 h, total growth inhibition; for MIC100 (complete growth inhibition): Aspergillus ustus, read-out: Fungicidal activity MIC100, AU
Method: as §1, §2, §3, §4

A. niger (ATCC 9029) = assay: as above; format: cell-based, Aspergillus niger; details: 48 h, total growth inhibition; for MIC100 (complete growth inhibition): Aspergillus niger, ATCC9029, 30 °C, read-out: Fungicidal activity MIC100, AN; for Fungicidal activity MIC100, AN: 30 °C
Method: as §1, §2, §3, §4

[4] = Cytotoxicity, neutral red uptake assay; format: cell-based, human; details: human
Method: (§5) The cytotoxic effect of the compounds, expressed as cell viability, was assessed on a permanent fibroblast cell line derived from human lung (MRC-5) (ATCC CCL-171). MRC-5 fibroblasts were grown as monolayers in minimum essential Eagle medium (MEM) with Earle’s salts, 2 mM l-glutamine and 2.2 g/L sodium bicarbonate, supplemented with 10% heat inactivated fetal bovine serum (FBS), 100 IU/mL penicillin and 100 µg/mL streptomycin in a humidified incubator with 5% CO2 in the air at 37 °C. Cell passage was maintained between 10 and 16. The medium was changed every 2 days.
(§6) Confluent cultures of MRC-5 fibroblasts were treated with medium containing the compounds at concentrations ranging from 0 to 1000 µM. For comparison purposes, the commercial antifungals CPZ and TDM were used as references, the products were first dissolved in DMSO and then in MEM, supplemented with 2% FBS. The final content of DMSO in the test medium and controls was 1%. Cells were exposed for 24 h to the test medium with or without the compound (control). Each concentration was tested in quadruplicate together with the control, and repeated three times in separate experiments. At the end of the incubation, the neutral red uptake (NRU) assay was carried out. To calculate the IC50 values (concentration that produces a 50% inhibitory effect on the evaluated parameter), the results were transformed to percentage of controls and the IC50 values were graphically obtained from the dose–response curves.

A. japonicus (M15C) = assay: In vitro antifungal activity, broth microdilution (MIC100); format: cell-based, Aspergillus japonicus; details: 48 h; for MIC: read-out: Fungicidal activity MIC100, AJ; for Fungicidal activity MIC100, AJ: A. japonicus, 30 °C, total growth inhibition
Method: as §1, §2, §3, §4

A. terreus (M16C) = assay: as above; format: cell-based, Aspergillus terreus; details: 48 h; for MIC100 (complete growth inhibition): Aspergillus terreus, read-out: Fungicidal activity MIC100, AT, A. terreus, 30 °C, total growth inhibition
Method: as §1, §2, §3, §4

[5] = test system: human lung fibroblasts MRC-5; assay: Cytotoxicity, neutral red uptake assay; format: cell-based
Method: as §5, §6

[6] = Botrytis cinerea, B. cinerea, 72 h, read-out: Fungicidal activity MIC100, BC
[7] = Botrytis cinerea, B. cinerea, molar conversion of the µg/mL value, read-out: MIC100 against B. cinerea expressed

| Structure (SMILES) | Minimum inhibitory concentration (MIC100) [1] | MIC100 (minimum concentration for complete growth inhibition) [2] | MIC100 (complete growth inhibition) [3, 6] | Fungicidal activity MIC100, AU (A. ustus (PN-S4)) | MIC100 (complete growth inhibition) (A. ustus (PN-S4)) | MIC100 (complete growth inhibition) (A. niger (ATCC 9029)) | IC50 at 24 h [4] | MIC (A. japonicus (M15C)) | MIC100 (complete growth inhibition) (A. terreus (M16C)) | Fungicidal activity MIC100, AF [1] | Fungicidal activity MIC100, F [2] | Fungicidal activity MIC100, AN (A. niger (ATCC 9029)) | IC50 [5] | Fungicidal activity MIC100, AJ (A. japonicus (M15C)) | Fungicidal activity MIC100, AT (A. terreus (M16C); A. terreus, 30 °C, total growth inhibition) | Fungicidal activity MIC100, BC ([3]; B. cinerea, 72 h) | MIC [3, 7] | IC50 at 24 h ([4]; MRC-5 fibroblasts, 24 h exposure, neutral red uptake, ± SD, read-out: Cytotoxicity IC50) | MFC ([3]; Botrytis cinerea, 72 h, read-out: Fungicidal activity MIC100, BC) | MIC ([3]; Botrytis cinerea, read-out: MIC100 against B. cinerea expressed in µM) |
| --- | --- | --- | --- | --- | --- | --- | --- | --- | --- | --- | --- | --- | --- | --- | --- | --- | --- | --- | --- | --- |
| CC(C1CC1)C(O)(Cn1cncn1)c1ccc(-c2ccc3ccccc3c2)cc1 (centres unmarked) [Compound 7] | ≥ 100 µg/mL | ≥ 100 µg/mL | ≥ 100 µg/mL | 6.25 ± 0.3 µg/mL | 6.25 µg/mL (≈ 16.3 µM) | ≥ 100 µg/mL | 49.1 ± 3.4 µM | ≥ 100 µg/mL | ≥ 100 µg/mL |  |  |  |  |  |  |  |  |  |  |  |
| c1nc[nH]n1 [Compound 8, 1H-1,2,4-Triazole] |  |  |  | ≥ 100 µg/mL |  |  |  |  |  | ≥ 100 µg/mL | ≥ 100 µg/mL | ≥ 100 µg/mL | > 1000 µM | ≥ 100 µg/mL | ≥ 100 µg/mL |  |  |  |  |  |
| COc1ccc(-c2ccc(C(O)(Cn3cncn3)C(C)C3CC3)cc2)cc1 (centres unmarked) [Compound 5, 3-Cyclopropyl-2-(4'-methoxy-[1,1'-biphenyl]-4-yl)-1-(1H-1,2,4-triazol-1-yl)butan-2-ol] | ≥ 100 µg/mL | ≥ 100 µg/mL | ≥ 100 µg/mL |  | ≥ 100 µg/mL | 6.25 µg/mL (≈ 17.2 µM) | 732 ± 29.3 µM | ≥ 100 µg/mL | ≥ 100 µg/mL |  |  | 6.25 ± 0.4 µg/mL |  |  |  |  |  |  |  |  |
| CC(C)(C)C(=O)C(Oc1ccc(Cl)cc1)n1cncn1 (centres unmarked) [TDM, 1-(4-chlorofenoxy)-3,3-dimethyl-1-(1H-1,2,4-triazol-1-yl)butan-2-one, reference compound] | 80 µg/mL (≈ 272 µM) | ≥ 100 µg/mL | 80 µg/mL (≈ 272 µM) |  | 80 ± 2.6 µg/mL (≈ 272 µM) | ≥ 100 µg/mL |  | ≥ 100 µg/mL | > 100 µg/mL | 80 ± 2.4 µg/mL |  |  |  |  |  | 80 ± 2.2 µg/mL | 274 µM (≈ 80.5 µg/mL) | 248 ± 12.4 µM |  |  |
| C[C@@H](c1ncncc1F)[C@](O)(Cn1cncn1)c1ccc(F)cc1F [VOR, voriconazole, reference compound] | < 0.75 µg/mL | < 0.75 µg/mL | < 0.75 µg/mL | 1.25 ± 0.5 µg/mL | 1.25 µg/mL (≈ 3.58 µM) | 1.25 ± 0.4 µg/mL (≈ 3.58 µM) |  | < 0.75 µg/mL | 6.25 ± 0.8 µg/mL (≈ 17.9 µM) |  |  |  |  |  |  |  |  |  |  |  |
| CC(C)(C)C(=O)C(Oc1ccc(-c2ccccc2)cc1)n1cncn1 (centres unmarked) [Compound 1, 1-(Biphenyl-4-yloxy)-3,3-dimethyl-1-(1H-1,2,4-triazol-1-yl)butan-2-one] | 80 ± 2.5 µg/mL (≈ 239 µM) | ≥ 100 µg/mL |  |  | 50 ± 1.2 µg/mL (≈ 149 µM) | 50 ± 1.7 µg/mL (≈ 149 µM) | 389 ± 23.5 µM | ≥ 100 µg/mL | ≥ 100 µg/mL |  |  |  |  |  |  | 10 ± 0.7 µg/mL |  |  | 10 µg/mL (≈ 29.8 µM) | 29.8 µM (≈ 10 µg/mL) |
| CC(C1CC1)C(O)(Cn1cncn1)c1ccc(-c2ccc([N+](=O)[O-])cc2)cc1 (centres unmarked) [Compound 6, 3-Cyclopropyl-2-(4'-nitro-[1,1'-biphenyl]-4-yl)-1-(1H-1,2,4-triazol-1-yl)butan-2-ol] | ≥ 100 µg/mL | ≥ 100 µg/mL | ≥ 100 µg/mL |  | ≥ 100 µg/mL | ≥ 100 µg/mL |  | ≥ 100 µg/mL | ≥ 100 µg/mL |  |  |  |  |  |  |  |  |  |  |  |
| CC(C1CC1)C(O)(Cn1cncn1)c1ccc(-c2ccccc2)cc1 (centres unmarked) [Compound 3, 2-(Biphenyl-4-yl)-3-cyclopropyl-1-(1H-1,2,4-triazol-1-yl)butan-2-ol] | ≥ 100 µg/mL | 5 µg/mL | 25 µg/mL (≈ 75 µM) | 6.25 ± 0.3 µg/mL | 6.25 µg/mL (≈ 18.7 µM) | 3.12 µg/mL (≈ 9.36 µM) | 118 ± 9.4 µM | 12.5 µg/mL (≈ 37.5 µM) | ≥ 100 µg/mL |  | 5 ± 0.4 µg/mL | 3.12 ± 0.3 µg/mL |  | 12.5 ± 0.8 µg/mL |  | 25 ± 1.4 µg/mL | 75 µM (≈ 25 µg/mL) |  |  |  |
| CC(C)(C)C(=O)C(Oc1ccc(-c2ccc(F)cc2)cc1)n1cncn1 (centres unmarked) [Compound 2] | ≥ 100 µg/mL | ≥ 100 µg/mL | ≥ 100 µg/mL |  | ≥ 100 µg/mL | ≥ 100 µg/mL | 90 ± 4.3 µM | ≥ 100 µg/mL | ≥ 100 µg/mL |  |  |  |  |  |  |  |  |  |  |  |
